Biological target: PD-1/PD-L1 (Homo sapiens (Human), UniProt Q9NZQ7)
Experiment: Homogenouse Time-Resolved Fluorescence (HTRF) binding assay PD-1/PD-L1
Details: CisBio kit #64CUS000C-1
Description: Homogenouse Time-Resolved Fluorescence (HTRF) binding assay was used to determine the binding activity of the compound of the present disclosure to PD-1/PD-L1.
The purchased kit (CisBio, #64CUS000C-1) contained the reagents required for experiments such as PD-1, PD-L1, anti-tag1-Eu, Anti-tag2-XL665, Dilute Buffer and Detection Buffer.
1. The compound was formulated to 10 concentrations with a three-fold concentration gradient with 100% DMSO.
2. The solution of the compound in DMSO was added to Dilute Buffer, and mixed evenly and then transferred to a 96-well plate.
3. PD-L1 was diluted with Dilute Buffer and added to the 96-well plate above.
4. PD-1 was diluted with Dilute Buffer, then added to the 96-well plate above and incubated at room temperature for 30 minutes.
5. One portion of anti-tag1-Eu and one portion of anti-tag2-XL665 were added to Detection Buffer, mixed evenly and transferred to the 96-well plate above.
6. The mixed solution in the 96-well plate were incubated at room temperature for 1 to 24 hours.
7. HTRF values were read by Envision.

Chain of PD-1/PD-L1 (Q9NZQ7 19-238): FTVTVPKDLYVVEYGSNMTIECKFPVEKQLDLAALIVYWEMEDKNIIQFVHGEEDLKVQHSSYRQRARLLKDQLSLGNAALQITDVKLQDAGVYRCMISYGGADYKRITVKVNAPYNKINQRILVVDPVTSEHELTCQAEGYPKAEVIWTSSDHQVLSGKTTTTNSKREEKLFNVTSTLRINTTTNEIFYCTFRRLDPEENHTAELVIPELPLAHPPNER

| SMILES | IC50 |
| --- | --- |
| Cc1c(/C=C/c2cc(CN[C@@](C)(CO)C(=O)O)ccc2C(F)(F)F)cccc1-c1cn2ccnc2cn1 [Compound 37] | 1300 nM |
| Cc1nc2ccc(-c3cccc(/C=C/c4cc(CN[C@@](C)(CO)C(=O)O)ccc4C(F)(F)F)c3C)cc2o1 [Compound 43, (S,E)-3-hydroxy-2-methyl-2-(3-(2-methyl-3-(2-methylbenzo[d]oxazol-6-yl)-styryl)-4-(trifluoromethyl)benzylamino)-3-hydroxy-2-methylpropanoic acid] | 540 nM |
| Cc1c(/C=C/c2cc(CN[C@@](C)(CO)C(=O)O)ccc2C(F)(F)F)cccc1-c1ccc2nccn2c1 [Compound 36] | > 10000 nM |

Source: patent US11384048B2, “Aromatic vinyl or aromatic ethyl derivative, preparation method therefor, intermediate, pharmaceutical composition, and application” (GUANGZHOU MAXINOVEL PHARMACEUTICALS CO., LTD., priority 2017, dated 2022)
